Assay results taken from US20170100396A1 (priority 2015, published 2017).
Where two headings read alike, the source gives them in different places.

Columns and labels:
in vitro = details: dog
[1] = test system: influenza A virus (IAV) A/Aichi/2/68 (H3N2); test: microbe, parasite or virus in culture; format: cell-based, influenza A virus in MDCK cells; details: Influenza A virus
[2] = target: PB2 cap binding domain (PB2-CBD) (residues 318-483) (Influenza A virus (A/duck/Shantou/4610/2003(H5N1)), UniProt Q2LG68); design: species or system avian influenza strain A/duck/Shantou/4610/2003(H5N1)
[3] = H3N2, MDCK, 48 h, read-out: CPE IC50

| Structure (SMILES) | CC50 (in vitro) [µM] | IC50 [1, 3] [µM] | further results |
| --- | --- | --- | --- |
| COC(=O)c1cccc(CNC(=O)[C@H](NC(=O)c2c[nH]c3ncc(C4CC4)nc23)C2CC2)c1 | 63.9 | 4.8 | – |
| O=C(N[C@@H](C(=O)NCc1ccc(Cl)cc1Cl)C1CC1)c1c[nH]c2ncc(C3CC3)nc12 | > 12.5 | 11.2 | – |
| CC(C)c1cnc2[nH]cc(C(=O)NCC(C)(C)C)c2n1 | – | 52.2 | Fp (result in words) [2]: No displacement |
| O=C(NCCc1ccccc1)c1c[nH]c2ncc(C3CC3)nc12 | > 100 | 66.9 | – |
| O=C(NCC1CC1)c1c[nH]c2ncc(-c3ccccc3Cl)nc12 | – | – | Fp (result in words) [2]: No displacement |
| N#Cc1cccc(CNC(=O)[C@H](NC(=O)c2c[nH]c3ncc(C4CC4)nc23)C2CC2)c1 | > 50 | 12.4 | – |
| COc1ccc(CNC(=O)[C@H](NC(=O)c2c[nH]c3ncc(C4CC4)nc23)C2CC2)cc1 | – | 10.3 | – |
| O=C(N[C@@H](C(=O)N1CCC[C@@H](C(=O)N2CCCC2)C1)C1CC1)c1c[nH]c2ncc(C3CC3)nc12 | – | > 100 | – |
| O=C(N[C@@H](C(=O)NCC(=O)N1CCS(=O)(=O)CC1)C1CC1)c1c[nH]c2ncc(C3CC3)nc12 | – | > 100 | – |
| CCOC(=O)C1(c2cccc(-c3cnc4[nH]cc(C(=O)NC(C)C)c4n3)c2)CC1 | – | – | inhibition at 5 µM ([1]; H3N2, read-out: % CPE reduction): -0.5% |
| O=C(N[C@@H](C(=O)NCc1ccc(F)cc1)C1CC1)c1c[nH]c2ncc(C3CC3)nc12 | – | 16.1 | – |
| O=C(N[C@@H](C(=O)N1CCc2ccccc2C1)C1CC1)c1c[nH]c2ncc(C3CC3)nc12 | – | > 100 | – |
| CS(=O)(=O)c1cccc(CNC(=O)c2c[nH]c3ncc(-c4ccccc4Cl)nc23)c1 | – | – | IC50 ([1]; H3N2, read-out: CPE IC50): 22.5 µM; Fp (result in words) [2]: No displacement |
